Series [1] relates to CV-1. The series is described as follows: Cell viability SRB assay, 96 h. As to conditions: Cercopithecidae, CV-1 fibroblast cell line. In kind it is cell-based. The procedure:
(§1) Cells were plated in 96-well plates at a density of 800-5,000 cells/well, depending on the cell line, in their required growth media containing 10% fetal bovine serum. Preliminary studies were performed with each cell line using a variety of cell densities and incubation times to determine appropriate seeding densities. The compound of interest was dissolved in DMSO, diluted in cell culture medium (final DMSO concentration was less than 0.5% v/v), and added to quadruplicate wells at final concentrations ranging from 0 to 100 μM. Control wells to which only drug-free vehicle was added were included as negative controls.
(§2) Cells were incubated for 96 hour at 37° C. in a humidified atmosphere containing 5% carbon dioxide.
(Sulforhodamine B stains cellular protein and so reports cell mass.)

Series [2] relates to DU-145. The series is described as follows: Cell viability SRB assay, 96 h. As to conditions: Homo sapiens, DU-145, 96 h. The format is cell-based. The procedure:
(§3) Cell viability (LNCaP, PC-3 prostate, DU145, PPC-1, and TSU-Pr1 prostate cancer cell lines, HT-29 colon cancer cell line, and MCF-7 breast cancer cell line) was quantitated using the sulforhodamine B (SRB) assay after 96 h coincubation with different concentrations of compound in 96-well plates. Cell viability of leukemia cells (K562 and doxorubicin-resistant K562/Dox) was quantitated by MTT assay after 96 h coincubation with different concentrations of compound in 96-well plates. Drug-induced apoptosis was determined by anti-histone ELISA assay and DNA laddering. Cell cycle progression was assessed by propidium iodide staining and fluorescence-activated cell sorting (FACS) analysis. In vitro tubulin polymerization assay was determined by CytoDYNAMIX ScreenTM3 (CDS-03) kits according to the manufacturer's instructions. Anti-apoptosis protein (Bcl-2 and Bcl-xl) and pro-apoptosis protein (Bax) were examined in LNCaP and PC-3 after 24 h incubation with different concentrations of compound 13 by Western blot assay. In vivo PC-3 xenograft studies were conducted by i.v. dosing of 50 mg/kg, 100 mg/kg and 150 mg/kg for 2 weeks.
as §1, §2
(§4) Cells were stained with SRB solution. […] WinNonlin was provided by a Pharsight Academic License to The Ohio State University.

Series [3] concerns HT-29. Nature of the series: Cell viability SRB assay, 96 h. The format is cell-based. As to conditions: Homo sapiens, HT-29, 96 h. The procedure:
as §3, §1, §2, §4

Series [4] relates to LNCaP. The series is described as follows: Cell viability SRB assay, 96 h. As to conditions: Homo sapiens. In kind it is cell-based. The procedure:
as §3, §1, §2, §4

The test system of series [5] is PC-3. The series is described as follows: Cell viability SRB assay, 96 h. The format is cell-based. As to conditions: Homo sapiens, PC-3, 96 h. As for the experimental part:
as §3, §1, §2, §4

Series [6] concerns PPC-1. The series is described as follows: Cell viability SRB assay, 96 h. In kind it is cell-based. As to conditions: Homo sapiens, PPC-1, 96 h. The procedure:
as §3, §1, §2, §4

Series [7] relates to TSU. Nature of the series: Cell viability SRB assay, 96 h. The format is cell-based. As to conditions: Homo sapiens, TSU (TSU-Pr1). As for the experimental part:
as §3, §1, §2, §4

Series [8] concerns MCF-7. Nature of the series: Cell viability SRB assay, 96 h. As to conditions: Homo sapiens, MCF7; MCF-7, 96 h. The format is cell-based. As for the experimental part: as §3, §1, §2, §4
Series [9] has as its system K562/Dox. The series is described as follows: Cell viability MTT assay, 96 h. As to conditions: Homo sapiens, doxorubicin-resistant. The format is cell-based. The procedure:
(§5) Cells were seeded in 96-well plates and incubated with different concentrations of compound 13, 68 or other anticancer drugs for 96 h. Cell viability was quantitated by MTT assay. […] Table 4 is a comparison of the IC50 of compounds 13, 68 and other anticancer drugs in the K562 and doxorubicin-resistant K562/DOX cell lines.
(In general: Tetrazolium dyes change colour on reduction, which living cells bring about.)

The test system of series [10] is K562. The series is described as follows: Cell viability MTT assay, 96 h. As to conditions: Homo sapiens. In kind it is cell-based. The procedure:
as §5

A short description of series [11]: Rotarod performance. In kind it is in vivo, ICR mice. As to conditions: 0.5 mg/kg i.p. q2d. As for the experimental part: The training and rotarod test was conducted as described previously. Briefly, during the training phase for 2 consecutive days (3 trials/day), mice (10 mice/group) were trained to run in a rotarod apparatus without falling at a constant speed (12 rpm) for a maximum of 2 min. For the rotarod performance test, duration of each trial was less than 5 min. […] Tests were performed for 2 weeks (2 days/week). The animals were tested in three trials per day with an intertrial interval of 30 min. Animal performance was recorded as the average elapsed time for the mice to fall off.

The source of these data is patent publication US20120022121A1, “INDOLES, DERIVATIVES AND ANALOGS THEREOF AND USES THEREFOR” (priority 2007, published 2012).

One may read the IC50 as the midpoint of a concentration-inhibition curve. The low end stands for inhibition by little substance, the high end for a need for much substance. By melting point is commonly meant the temperature, or range, at which the solid turns liquid.

As to `c1cc(Cc2cc3ccccc3[nH]2)cc(-c2cc3ccccc3[nH]2)c1` [Compound 10, (1H-Indol-2-yl)-[3-(1H-indol-2-yl)phenyl]methane], the melting point was 193 to 194 °C. This compound registered an IC50 in series [1] of over 50000 nM. This compound came in with an IC50 in [2] of 18400 nM. For the same compound, it took 720 nM to reach half-maximal inhibition in series [3] (IC50). Also, the IC50 in series [4] is over 50000 nM. The same compound had an IC50 in series [5] of over 50000 nM. In series [6], this compound gave an IC50 of over 50000 nM. In series [7], this compound registered an IC50 of 20000 to 50000 nM.

With `COc1cc(OC)cc(C(=O)c2cccc(-c3cc4ccccc4[nH]3)c2)c1` [Compound 82, (3,5-Dimethoxy-phenyl)-[3-(1H-indol-2-yl)-phenyl]-methanone], the IC50 was found to be 134 nM in [2]; 92 nM in [3]; 82 nM in series [4]; 54 nM in [8]; 75 ± 16 nM in series [5]; 69 nM in series [6]. The compound also displayed an IC50 in series [7] of 65 nM.

`COc1cccc2c1C(=O)c1c(O)c3c(c(O)c1C2=O)C[C@@](O)(C(=O)CO)C[C@@H]3O[C@H]1C[C@H](N)[C@H](O)[C@H](C)O1` [Doxirubicin]: the IC50 turned out to be 859 ± 26.8 nM in series [9] and 27.1 ± 5.5 nM in series [10].

As to `CC[C@]1(O)C[C@H]2CN(CCc3c([nH]c4ccccc34)[C@@](C(=O)OC)(c3cc4c(cc3OC)N(C=O)[C@H]3[C@@](O)(C(=O)OC)[C@H](OC(C)=O)[C@]5(CC)C=CCN6CC[C@]43[C@@H]65)C2)C1` [vincristine], in series [11] (day 4 to day 14), the rotarod performance result is reported as “impaired performance”. The “mean time on the rotating rod” value in series [11] (end of 2 weeks (vehicle 151 s)) came out at 104 s.

The compound `O=C(c1cccc(-c2cc3ccccc3n2S(=O)(=O)c2ccccc2)c1)c1cc2ccccc2n1S(=O)(=O)c1ccccc1` [Compound 12, (1-Benzenesulfonyl-1H-indol-2-yl)-[3-(1-benzenesulfonyl-1H-indol-2-yl)phenyl]methanone] had a melting point of 189 to 190 °C. The compound also registered an IC50 in series [1] of over 100000 nM. This compound yielded an IC50 in [2] of over 100000 nM. This compound also gave an IC50 in [4] of over 100000 nM. Also, the IC50 in series [5] is over 100000 nM. In addition, the IC50 in [6] was over 100000 nM. Also, the IC50 in series [7] was over 100000 nM.

With `COc1cccc(C(=O)c2cccc(-c3cc4ccccc4[nH]3)c2)c1` [Compound 81, [3-(1H-Indol-2-yl)-phenyl]-(3-methoxy-phenyl)-methanone], the IC50 in series [2] was found to be 129 nM; in [3] it was 100 nM; in series [4], 47 nM; in [8], 43 nM; in series [5], 72 ± 13 nM; in series [6], 43 nM. The compound further registered an IC50 in series [7] of 42 nM.

As to `COc1cc(C(=O)c2cccc(-c3cc4cc(F)ccc4[nH]3)c2)cc(OC)c1OC` [Compound 90, [3-(5-Fluoro-1H-indol-2-yl)-phenyl]-(3,4,5-trimethoxy-phenyl)-methanone], the IC50 in series [2] stood at 28 nM; in series [4], 32 nM; in series [8], 39 nM; in series [5], 31 ± 4 nM; in [6], 28 nM.

Take `COc1ccc(C(=O)c2cccc(-c3cc4ccccc4[nH]3)c2)cc1OC` [Compound 83, (3,4-Dimethoxy-phenyl)-[3-(1H-indol-2-yl)-phenyl]-methanone]: the half-inhibitory concentration (IC50) in [2] worked out at 131 nM; in series [3] it was 119 nM; in series [4], 51 nM; in series [8], 43 nM; in series [5] it was 69 ± 12 nM; in series [6], 40 nM. The same compound gave an IC50 in series [7] of 44 nM.
